Consider 5 compounds from PubChem BioAssay AID1625 (Sanford-Burnham Center for Chemical Genomics, 2009).

The source made the active and inactive calls.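 Rule for the calls: active = z-score above 3 at 5 µM with at least 500 cells counted in the well; inconclusive = wells under 500 cells, flagged as cytotoxic or low count; inactive = the rest.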

The assay concerns MIN6 insulin promoter-GFP reporter, high-content imaging. As to the kind of experiment: insulin promoter activators in MIN6 cells, imaging, high-content screening, mouse beta cells (AID 1625).
By EC50 is commonly meant the midpoint of the concentration-response curve. As to `CCOC(=O)/C(C#N)=C/C=C1\C=Cc2ccccc2N1CC`, the EC50 is > 16 µM (inactive).

Turning to `COc1ccc(NC(=O)/C(C#N)=C\c2ccc(N3CCOCC3)o2)cc1`, the concentration giving a half-maximal response (EC50) is 9.14 µM.

With `COc1cc2c(cc1OC)C1=CC(=O)C(=O)N1C(C)(C)C2`, the EC50 is 11.5 µM (inactive). The value for `CN1/C(=C\C=C2/C(=O)Oc3ccccc3C2=O)C(C)(C)c2ccccc21` was 2.58 µM; that for `CN1C(=O)C(=Cc2ccc(N3CCCCC3)o2)C(=O)N(C)C1=S` was > 16 µM (inactive).
